# Reference: PubChem BioAssay (NCI)
#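 Method: 48-hour compound exposure of cells in 96-well plates, five concentrations, linear interpolation of endpoints. GI50: concentration for 50% inhibition of growth. Definition used: TGI = concentration required for complete inhibition of growth.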
# Experiments:
# Experiment in all cases: DTP human tumour cell line panel, 48 h
# COLO 205 colon = tested on: COLO 205 colon
# MALME-3M melanoma = tested on: MALME-3M melanoma
# NCI-H23 lung = tested on: NCI-H23 lung
# U251 CNS = tested on: U251 CNS
# RPMI-8226 leukemia = tested on: RPMI-8226 leukemia
# MCF7 breast = tested on: MCF7 breast
# HOP-62 NSCLC = tested on: HOP-62 NSCLC
# DU-145 prostate = tested on: DU-145 prostate
# M14 melanoma = tested on: M14 melanoma
# SN12C renal = tested on: SN12C renal
# A549 NSCLC = tested on: A549 NSCLC
# CAKI-1 renal = tested on: CAKI-1 renal
# K-562 leukemia = tested on: K-562 leukemia
# MDA-MB-231 breast = tested on: MDA-MB-231 breast
# A498 renal = tested on: A498 renal
# SK-MEL-28 melanoma = tested on: SK-MEL-28 melanoma
# OVCAR-3 ovarian = tested on: OVCAR-3 ovarian
# PC-3 prostate = tested on: PC-3 prostate
# TK-10 renal = tested on: TK-10 renal
# SW-620 colon = tested on: SW-620 colon
# RXF 393 renal = tested on: RXF 393 renal
# NCI-H226 lung = tested on: NCI-H226 lung
# OVCAR-5 ovarian = tested on: OVCAR-5 ovarian
# EKVX NSCLC = tested on: EKVX NSCLC
# SK-MEL-5 melanoma = tested on: SK-MEL-5 melanoma
# MDA-MB-435 = tested on: MDA-MB-435
# T-47D breast = tested on: T-47D breast
# ACHN renal = tested on: ACHN renal
# NCI-H522 lung = tested on: NCI-H522 lung
# SF-268 CNS = tested on: SF-268 CNS
# BT-549 breast = tested on: BT-549 breast
# MOLT-4 leukemia = tested on: MOLT-4 leukemia
# HCT-15 colon = tested on: HCT-15 colon
# SF-295 CNS = tested on: SF-295 CNS
# SNB-75 CNS = tested on: SNB-75 CNS
# NCI-H460 lung = tested on: NCI-H460 lung
# HL-60(TB) leukemia = tested on: HL-60(TB) leukemia
# OVCAR-4 ovarian = tested on: OVCAR-4 ovarian
# SR leukemia = tested on: SR leukemia
# HT29 colon = tested on: HT29 colon
# NCI/ADR-RES ovarian = tested on: NCI/ADR-RES ovarian
# CCRF-CEM leukemia = tested on: CCRF-CEM leukemia
# 786-0 renal = tested on: 786-0 renal
# SNB-19 CNS = tested on: SNB-19 CNS
# UO-31 renal = tested on: UO-31 renal
# HCT-116 colon = tested on: HCT-116 colon
# KM12 colon = tested on: KM12 colon
# HCC-2998 colon = tested on: HCC-2998 colon
# UACC-62 melanoma = tested on: UACC-62 melanoma
# HOP-92 NSCLC = tested on: HOP-92 NSCLC
# LOX IMVI melanoma = tested on: LOX IMVI melanoma
# SF-539 CNS = tested on: SF-539 CNS
# HS 578T breast = tested on: HS 578T breast
# SK-MEL-2 melanoma = tested on: SK-MEL-2 melanoma
# IGROV1 ovarian = tested on: IGROV1 ovarian
# UACC-257 melanoma = tested on: UACC-257 melanoma
# SK-OV-3 ovarian = tested on: SK-OV-3 ovarian
# OVCAR-8 ovarian = tested on: OVCAR-8 ovarian
structure (smiles),measurement,setting,value
O[N+]1=CC=CCC1=S.On1ccccc1=S.[Zn],GI50,COLO 205 colon,375 nM
same,TGI,COLO 205 colon,951 nM
same,GI50,MALME-3M melanoma,819 nM
same,TGI,MALME-3M melanoma,2710 nM
same,GI50,NCI-H23 lung,919 nM
same,TGI,NCI-H23 lung,2810 nM
same,GI50,U251 CNS,602 nM
same,TGI,U251 CNS,1520 nM
same,GI50,RPMI-8226 leukemia,1390 nM
same,TGI,RPMI-8226 leukemia,4050 nM
same,GI50,MCF7 breast,532 nM
same,TGI,MCF7 breast,2100 nM
same,GI50,HOP-62 NSCLC,1210 nM
same,TGI,HOP-62 NSCLC,2720 nM
same,GI50,DU-145 prostate,732 nM
same,TGI,DU-145 prostate,1860 nM
same,GI50,M14 melanoma,460 nM
same,TGI,M14 melanoma,1310 nM
same,GI50,SN12C renal,1000 nM
same,TGI,SN12C renal,2530 nM
same,GI50,A549 NSCLC,811 nM
same,TGI,A549 NSCLC,2330 nM
same,GI50,CAKI-1 renal,1530 nM
same,TGI,CAKI-1 renal,3130 nM
same,GI50,K-562 leukemia,661 nM
same,TGI,K-562 leukemia,6980 nM
same,GI50,MDA-MB-231 breast,759 nM
same,TGI,MDA-MB-231 breast,2220 nM
same,GI50,A498 renal,1510 nM
same,TGI,A498 renal,3060 nM
same,GI50,SK-MEL-28 melanoma,530 nM
same,TGI,SK-MEL-28 melanoma,1210 nM
same,GI50,OVCAR-3 ovarian,579 nM
same,TGI,OVCAR-3 ovarian,1370 nM
same,GI50,PC-3 prostate,834 nM
same,TGI,PC-3 prostate,3130 nM
same,GI50,TK-10 renal,1090 nM
same,TGI,TK-10 renal,2470 nM
same,GI50,SW-620 colon,899 nM
same,TGI,SW-620 colon,2640 nM
same,GI50,RXF 393 renal,587 nM
same,TGI,RXF 393 renal,1360 nM
same,GI50,NCI-H226 lung,1020 nM
same,TGI,NCI-H226 lung,3040 nM
same,GI50,OVCAR-5 ovarian,1450 nM
same,TGI,OVCAR-5 ovarian,3040 nM
same,GI50,EKVX NSCLC,1360 nM
same,TGI,EKVX NSCLC,3000 nM
same,GI50,SK-MEL-5 melanoma,1100 nM
same,TGI,SK-MEL-5 melanoma,2470 nM
same,GI50,MDA-MB-435,753 nM
same,TGI,MDA-MB-435,2270 nM
same,GI50,T-47D breast,1430 nM
same,TGI,T-47D breast,3130 nM
same,GI50,ACHN renal,967 nM
same,TGI,ACHN renal,2310 nM
same,GI50,NCI-H522 lung,373 nM
same,TGI,NCI-H522 lung,985 nM
same,GI50,SF-268 CNS,880 nM
same,TGI,SF-268 CNS,2510 nM
same,GI50,BT-549 breast,1520 nM
same,TGI,BT-549 breast,3150 nM
same,GI50,MOLT-4 leukemia,614 nM
same,TGI,MOLT-4 leukemia,6760 nM
same,GI50,HCT-15 colon,1030 nM
same,TGI,HCT-15 colon,3020 nM
same,GI50,SF-295 CNS,924 nM
same,TGI,SF-295 CNS,2720 nM
same,GI50,SNB-75 CNS,1950 nM
same,TGI,SNB-75 CNS,6850 nM
same,GI50,NCI-H460 lung,935 nM
same,TGI,NCI-H460 lung,2870 nM
same,GI50,HL-60(TB) leukemia,2580 nM
same,TGI,HL-60(TB) leukemia,6500 nM
same,GI50,OVCAR-4 ovarian,530 nM
same,TGI,OVCAR-4 ovarian,1630 nM
same,GI50,SR leukemia,351 nM
same,TGI,SR leukemia,> 23000 nM
same,GI50,HT29 colon,300 nM
same,TGI,HT29 colon,942 nM
same,GI50,NCI/ADR-RES ovarian,699 nM
same,TGI,NCI/ADR-RES ovarian,2390 nM
same,GI50,CCRF-CEM leukemia,437 nM
same,TGI,CCRF-CEM leukemia,2750 nM
same,GI50,786-0 renal,931 nM
same,TGI,786-0 renal,2290 nM
same,GI50,SNB-19 CNS,1240 nM
same,TGI,SNB-19 CNS,2800 nM
same,GI50,UO-31 renal,664 nM
same,TGI,UO-31 renal,1970 nM
same,GI50,HCT-116 colon,274 nM
same,TGI,HCT-116 colon,690 nM
same,GI50,KM12 colon,1280 nM
same,TGI,KM12 colon,2600 nM
same,GI50,HCC-2998 colon,896 nM
same,TGI,HCC-2998 colon,2370 nM
same,GI50,UACC-62 melanoma,755 nM
same,TGI,UACC-62 melanoma,2230 nM
same,GI50,HOP-92 NSCLC,1470 nM
same,TGI,HOP-92 NSCLC,3240 nM
same,GI50,LOX IMVI melanoma,429 nM
same,TGI,LOX IMVI melanoma,912 nM
same,GI50,SF-539 CNS,977 nM
same,TGI,SF-539 CNS,2560 nM
same,GI50,HS 578T breast,2150 nM
same,TGI,HS 578T breast,> 30700 nM
same,GI50,SK-MEL-2 melanoma,1600 nM
same,TGI,SK-MEL-2 melanoma,3920 nM
same,GI50,IGROV1 ovarian,862 nM
same,TGI,IGROV1 ovarian,2720 nM
same,GI50,UACC-257 melanoma,529 nM
same,TGI,UACC-257 melanoma,1290 nM
same,GI50,SK-OV-3 ovarian,1510 nM
same,TGI,SK-OV-3 ovarian,2870 nM
same,GI50,OVCAR-8 ovarian,399 nM
same,TGI,OVCAR-8 ovarian,1830 nM
